Assay results reported in patent US20240189318A1, “THERAPEUTIC REGIMENS OF AN INHIBITOR OF THE ENZYMATIC ACTIVITY OF BRG1 AND BRM” (FOGHORN THERAPEUTICS INC., priority 2021, published 2024).
Read-outs that look alike come from different tables or passages of the source.

What was measured:
CYP2B6 mRNA = assay: CYP mRNA level (qRT-PCR) in cultured human hepatocytes, CYP2B6; conditions: tested concentrations up to 50 nM
[1] = Depletion in Control Bactosomes and Reductase Control; type: in vitro ADME
OAT1 = target: T1, OAT1 (Homo sapiens, UniProt Q4U2R8); assay: Transporter inhibition in MDCK-II cells, OAT1; type: in vitro ADME; conditions: for IC50: probe p-aminohippurate 2 μM
T1 construct: expressed in transfected cells; host or cells: MDCK-II
T1 sequence (Q4U2R8 1-563): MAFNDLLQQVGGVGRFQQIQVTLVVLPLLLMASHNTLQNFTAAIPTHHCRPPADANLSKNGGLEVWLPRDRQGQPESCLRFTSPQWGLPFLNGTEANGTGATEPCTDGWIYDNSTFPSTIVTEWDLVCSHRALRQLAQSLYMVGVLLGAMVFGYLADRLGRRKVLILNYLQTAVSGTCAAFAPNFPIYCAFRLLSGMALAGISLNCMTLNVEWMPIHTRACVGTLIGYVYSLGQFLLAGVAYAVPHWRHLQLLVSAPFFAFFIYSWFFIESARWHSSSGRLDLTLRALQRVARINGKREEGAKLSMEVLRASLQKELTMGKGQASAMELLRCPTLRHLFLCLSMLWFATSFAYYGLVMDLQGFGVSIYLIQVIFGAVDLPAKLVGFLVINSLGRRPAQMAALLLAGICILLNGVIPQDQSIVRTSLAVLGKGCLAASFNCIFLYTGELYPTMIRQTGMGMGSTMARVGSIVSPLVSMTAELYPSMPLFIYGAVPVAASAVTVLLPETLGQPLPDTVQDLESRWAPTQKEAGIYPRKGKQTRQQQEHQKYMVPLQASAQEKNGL

CYP2D6 = CYP2D6 (Homo sapiens, UniProt P10635); assay: Depletion by recombinant CYP enzyme, CYP2D6; type: in vitro ADME; design: from tissue; host or cells: pooled human liver microsomes; conditions: recombinant 2D6
BRM = BRM (Homo sapiens, UniProt P51531); assay: biochemical
CYP3A activity = assay: CYP enzyme activity in cultured human hepatocytes, CYP3A4; type: in vitro ADME
CYP1A2 = target: T2, CYP1A2 (Homo sapiens, UniProt P05177); assay: Depletion by recombinant CYP enzyme, CYP1A2; type: in vitro ADME; design: from tissue; host or cells: pooled human liver microsomes; conditions: recombinant 1A2
T2 sequence (P05177 1-516): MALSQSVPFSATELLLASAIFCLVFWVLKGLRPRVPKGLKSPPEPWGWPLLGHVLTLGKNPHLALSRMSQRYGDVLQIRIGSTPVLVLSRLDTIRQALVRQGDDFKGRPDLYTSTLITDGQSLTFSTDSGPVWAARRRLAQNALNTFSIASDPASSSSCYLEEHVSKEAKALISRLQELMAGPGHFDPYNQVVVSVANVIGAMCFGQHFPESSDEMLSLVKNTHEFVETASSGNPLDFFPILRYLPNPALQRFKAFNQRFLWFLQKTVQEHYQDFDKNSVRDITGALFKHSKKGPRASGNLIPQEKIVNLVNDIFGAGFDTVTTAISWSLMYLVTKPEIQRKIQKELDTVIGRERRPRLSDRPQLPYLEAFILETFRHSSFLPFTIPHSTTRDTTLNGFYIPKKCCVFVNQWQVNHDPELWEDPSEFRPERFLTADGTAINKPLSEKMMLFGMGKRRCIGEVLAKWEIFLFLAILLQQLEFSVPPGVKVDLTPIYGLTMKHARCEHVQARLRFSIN

P-gp = target: T3, P-gp (Homo sapiens, UniProt P08183); assay: Transporter inhibition in MDCK-II cells, P-gp; type: in vitro ADME; conditions: for IC50: probe quinidine 0.1 μM
T3 construct: expressed in transfected cells; host or cells: MDCK-II

CYP2B6 [2] = target: T4, CYP2B6 (Homo sapiens, UniProt P20813); assay: CYP enzyme inhibition in pooled human liver microsomes, CYP2B6; conditions: for inhibition at 30 µM: human, microsomes, Enzyme activity (% inhibition), CYP2B6, probe Efavirenz
T4 sequence (P20813 1-491): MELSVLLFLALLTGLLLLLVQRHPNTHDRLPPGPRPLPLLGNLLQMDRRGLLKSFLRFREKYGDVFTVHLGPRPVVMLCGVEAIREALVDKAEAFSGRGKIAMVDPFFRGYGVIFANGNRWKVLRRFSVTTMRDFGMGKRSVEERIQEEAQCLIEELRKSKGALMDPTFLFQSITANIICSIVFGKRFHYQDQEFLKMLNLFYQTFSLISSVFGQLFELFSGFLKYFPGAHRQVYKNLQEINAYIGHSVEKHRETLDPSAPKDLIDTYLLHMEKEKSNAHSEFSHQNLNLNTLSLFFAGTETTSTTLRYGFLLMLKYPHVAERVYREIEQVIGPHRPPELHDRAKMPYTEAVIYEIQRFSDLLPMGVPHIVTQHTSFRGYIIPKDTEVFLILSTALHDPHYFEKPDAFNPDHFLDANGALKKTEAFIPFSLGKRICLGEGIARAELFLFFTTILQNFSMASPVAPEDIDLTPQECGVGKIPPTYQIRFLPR

CYP2B6 [3] = target: T4, CYP2B6; assay: Depletion by recombinant CYP enzyme, CYP2B6; type: in vitro ADME; design: from tissue; host or cells: pooled human liver microsomes; conditions: recombinant 2B6; 0.1 μM
[4] = tested on: cultured human hepatocytes; assay: Cytotoxicity to cultured human hepatocytes (morphology, LDH release); conditions: second study, 0.3 to 50 nM, 72 hours
CYP2C8 = CYP2C8 (Homo sapiens, UniProt P10632); assay: Depletion by recombinant CYP enzyme, CYP2C8; type: in vitro ADME; design: from tissue; host or cells: pooled human liver microsomes; conditions: recombinant 2C8
CYP3A4 = CYP3A4 (Homo sapiens, UniProt P08684); assay: Depletion by recombinant CYP enzyme, CYP3A4; type: in vitro ADME; conditions: recombinant 3A4
CYP3A4, sequence (P08684 whole entry): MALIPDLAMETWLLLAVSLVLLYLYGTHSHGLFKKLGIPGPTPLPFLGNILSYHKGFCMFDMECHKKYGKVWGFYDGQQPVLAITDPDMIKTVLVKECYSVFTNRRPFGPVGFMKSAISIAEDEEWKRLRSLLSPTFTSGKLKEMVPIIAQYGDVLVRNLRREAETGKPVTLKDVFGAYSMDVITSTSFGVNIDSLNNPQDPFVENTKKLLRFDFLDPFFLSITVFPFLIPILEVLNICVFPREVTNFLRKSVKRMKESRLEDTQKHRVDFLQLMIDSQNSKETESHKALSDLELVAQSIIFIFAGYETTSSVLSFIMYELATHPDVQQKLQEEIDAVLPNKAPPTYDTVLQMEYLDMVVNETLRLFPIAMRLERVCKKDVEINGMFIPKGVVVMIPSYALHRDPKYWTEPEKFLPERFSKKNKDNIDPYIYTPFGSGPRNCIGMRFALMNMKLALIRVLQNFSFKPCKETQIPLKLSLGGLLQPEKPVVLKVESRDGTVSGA

T3 sequence (P08183 whole entry): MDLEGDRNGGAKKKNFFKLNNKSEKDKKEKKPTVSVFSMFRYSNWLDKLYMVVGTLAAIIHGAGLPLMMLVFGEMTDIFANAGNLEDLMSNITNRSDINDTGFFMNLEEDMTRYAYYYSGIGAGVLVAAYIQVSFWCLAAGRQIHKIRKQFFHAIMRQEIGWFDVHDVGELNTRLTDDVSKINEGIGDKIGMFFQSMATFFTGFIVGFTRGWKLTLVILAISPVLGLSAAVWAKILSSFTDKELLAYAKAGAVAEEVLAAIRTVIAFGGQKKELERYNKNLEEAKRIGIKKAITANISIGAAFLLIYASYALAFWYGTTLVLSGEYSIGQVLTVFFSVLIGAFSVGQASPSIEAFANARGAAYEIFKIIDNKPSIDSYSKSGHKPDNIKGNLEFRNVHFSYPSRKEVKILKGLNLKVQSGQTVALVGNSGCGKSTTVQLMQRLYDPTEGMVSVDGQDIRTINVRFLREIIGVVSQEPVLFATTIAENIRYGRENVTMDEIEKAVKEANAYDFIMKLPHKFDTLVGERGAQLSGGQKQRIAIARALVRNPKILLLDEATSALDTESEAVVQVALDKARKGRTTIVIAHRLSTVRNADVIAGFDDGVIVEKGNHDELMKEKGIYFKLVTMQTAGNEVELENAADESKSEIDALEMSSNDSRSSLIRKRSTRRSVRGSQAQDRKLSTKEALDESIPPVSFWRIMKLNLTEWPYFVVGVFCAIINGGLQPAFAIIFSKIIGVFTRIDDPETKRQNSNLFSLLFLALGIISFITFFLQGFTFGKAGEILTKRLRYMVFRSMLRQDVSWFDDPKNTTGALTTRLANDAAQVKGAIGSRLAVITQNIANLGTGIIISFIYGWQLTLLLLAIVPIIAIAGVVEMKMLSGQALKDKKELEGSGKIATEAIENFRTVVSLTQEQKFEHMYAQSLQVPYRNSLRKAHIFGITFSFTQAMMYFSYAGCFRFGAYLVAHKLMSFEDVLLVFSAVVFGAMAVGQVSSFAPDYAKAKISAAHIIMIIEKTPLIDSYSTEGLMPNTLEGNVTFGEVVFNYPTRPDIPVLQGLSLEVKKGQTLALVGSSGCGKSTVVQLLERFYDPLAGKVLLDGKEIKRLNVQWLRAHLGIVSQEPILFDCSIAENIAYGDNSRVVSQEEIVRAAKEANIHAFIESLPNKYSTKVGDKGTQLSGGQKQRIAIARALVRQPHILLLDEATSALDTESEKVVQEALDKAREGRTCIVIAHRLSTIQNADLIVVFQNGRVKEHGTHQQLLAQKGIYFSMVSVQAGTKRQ
CYP2D6, sequence (P10635 whole entry): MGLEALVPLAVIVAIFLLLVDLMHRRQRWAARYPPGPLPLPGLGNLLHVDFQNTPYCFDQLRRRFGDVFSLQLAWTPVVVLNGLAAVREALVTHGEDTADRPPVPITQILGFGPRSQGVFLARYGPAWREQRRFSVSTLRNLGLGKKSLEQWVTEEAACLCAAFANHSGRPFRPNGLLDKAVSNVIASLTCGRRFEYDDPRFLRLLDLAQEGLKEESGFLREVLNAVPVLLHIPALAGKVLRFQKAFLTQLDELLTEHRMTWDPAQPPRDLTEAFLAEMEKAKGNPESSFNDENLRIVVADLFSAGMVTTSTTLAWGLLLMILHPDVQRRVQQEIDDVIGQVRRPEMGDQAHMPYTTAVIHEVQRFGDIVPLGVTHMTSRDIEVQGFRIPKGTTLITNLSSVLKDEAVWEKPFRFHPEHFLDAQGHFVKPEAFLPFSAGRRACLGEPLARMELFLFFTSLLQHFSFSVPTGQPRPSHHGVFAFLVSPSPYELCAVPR
CYP2C8, sequence (P10632 whole entry): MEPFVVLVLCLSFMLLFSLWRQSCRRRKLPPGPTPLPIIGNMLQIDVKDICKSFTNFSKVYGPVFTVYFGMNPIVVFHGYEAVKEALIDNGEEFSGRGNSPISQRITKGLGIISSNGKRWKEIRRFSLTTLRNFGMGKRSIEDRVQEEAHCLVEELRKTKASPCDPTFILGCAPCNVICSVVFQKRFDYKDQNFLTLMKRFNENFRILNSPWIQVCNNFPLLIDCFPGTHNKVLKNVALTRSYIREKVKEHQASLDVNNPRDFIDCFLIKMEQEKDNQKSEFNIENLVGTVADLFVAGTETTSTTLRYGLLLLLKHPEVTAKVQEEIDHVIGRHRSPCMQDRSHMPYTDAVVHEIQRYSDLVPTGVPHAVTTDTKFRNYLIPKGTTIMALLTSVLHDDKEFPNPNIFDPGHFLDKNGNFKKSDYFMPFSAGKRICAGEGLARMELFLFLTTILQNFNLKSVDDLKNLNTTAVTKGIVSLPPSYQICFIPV
BRM, sequence (P51531 whole entry): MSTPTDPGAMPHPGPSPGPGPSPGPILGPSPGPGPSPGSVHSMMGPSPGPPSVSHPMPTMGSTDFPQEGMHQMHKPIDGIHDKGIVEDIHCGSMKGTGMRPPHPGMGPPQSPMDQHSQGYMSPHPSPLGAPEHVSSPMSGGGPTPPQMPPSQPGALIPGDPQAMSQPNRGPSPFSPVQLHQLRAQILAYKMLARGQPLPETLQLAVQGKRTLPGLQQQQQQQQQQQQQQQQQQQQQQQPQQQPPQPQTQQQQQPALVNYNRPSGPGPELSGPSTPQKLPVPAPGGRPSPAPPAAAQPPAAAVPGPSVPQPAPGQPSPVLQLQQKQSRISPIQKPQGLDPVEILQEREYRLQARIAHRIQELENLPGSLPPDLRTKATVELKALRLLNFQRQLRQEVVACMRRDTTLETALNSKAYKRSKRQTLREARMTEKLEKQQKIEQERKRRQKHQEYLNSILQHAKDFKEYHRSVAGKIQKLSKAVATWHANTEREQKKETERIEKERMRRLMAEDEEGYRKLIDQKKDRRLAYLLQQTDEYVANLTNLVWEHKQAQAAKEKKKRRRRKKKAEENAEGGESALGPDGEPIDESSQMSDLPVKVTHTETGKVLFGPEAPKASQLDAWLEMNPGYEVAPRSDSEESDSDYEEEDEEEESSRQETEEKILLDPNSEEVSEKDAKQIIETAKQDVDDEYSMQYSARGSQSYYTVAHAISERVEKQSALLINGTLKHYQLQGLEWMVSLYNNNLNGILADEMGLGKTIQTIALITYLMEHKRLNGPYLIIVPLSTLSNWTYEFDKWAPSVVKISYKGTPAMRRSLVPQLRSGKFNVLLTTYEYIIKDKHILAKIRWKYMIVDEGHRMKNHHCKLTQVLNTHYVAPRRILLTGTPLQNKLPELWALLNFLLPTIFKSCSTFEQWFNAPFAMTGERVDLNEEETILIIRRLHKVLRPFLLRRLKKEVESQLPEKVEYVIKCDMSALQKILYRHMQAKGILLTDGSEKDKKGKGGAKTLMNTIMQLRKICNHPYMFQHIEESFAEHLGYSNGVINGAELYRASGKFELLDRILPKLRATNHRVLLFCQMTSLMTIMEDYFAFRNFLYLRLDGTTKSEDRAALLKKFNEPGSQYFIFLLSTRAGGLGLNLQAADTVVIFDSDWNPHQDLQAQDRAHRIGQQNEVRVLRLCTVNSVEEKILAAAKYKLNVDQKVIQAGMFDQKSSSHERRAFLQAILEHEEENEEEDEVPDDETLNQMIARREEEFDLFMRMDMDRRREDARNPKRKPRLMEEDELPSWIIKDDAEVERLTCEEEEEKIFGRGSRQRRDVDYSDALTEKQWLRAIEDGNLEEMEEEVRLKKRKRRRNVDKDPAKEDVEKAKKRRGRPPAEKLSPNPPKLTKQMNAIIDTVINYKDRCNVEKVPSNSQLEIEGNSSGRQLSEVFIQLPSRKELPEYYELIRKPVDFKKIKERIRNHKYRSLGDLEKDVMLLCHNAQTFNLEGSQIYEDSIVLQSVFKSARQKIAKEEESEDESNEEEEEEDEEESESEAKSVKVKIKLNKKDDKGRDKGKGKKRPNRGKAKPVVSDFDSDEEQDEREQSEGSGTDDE

SMILES: COC[C@H](NC(=O)c1ccn(S(C)(=O)=O)c1)C(=O)Nc1nc(-c2cccc(N3C[C@@H](C)O[C@@H](C)C3)n2)cs1 [compound of formula (I), N-((S)-1-((4-(6-(cis-2,6-dimethylmorpholino)pyridin-2-yl)thiazol-2-yl)amino)-3-methoxy-1-oxopropan-2-yl)-1-(methylsulfonyl)-1H-pyrrole-3-carboxamide]
- effect on mRNA expression of CYP2B6 (CYP2B6 mRNA): minimal effect
- % Remaining of Compound of Formula (I) ([1]; Control Bactosomes, 0.1 μM): 90.2%
- % Remaining of Compound of Formula (I) ([1]; Control Bactosomes, 1 μM): 98.3%
- % Remaining of Compound of Formula (I) ([1]; Reductase Control, 0.1 μM): 78.3%
- % Remaining of Compound of Formula (I) ([1]; Reductase Control, 1 μM): 109%
- IC50 (OAT1; OAT1, corrected for difference between measured and nominal concentrations, read-out: IC50 corrected for non-specific binding): > 11.8 µM
- IC50 (OAT1; OAT1 in MDCK-II cells, read-out: Estimated IC50 using nominal concentrations): > 50 µM
- inhibition toward OAT1 (OAT1; nominal test concentrations up to 50 μM): minimal inhibition
- % Remaining of Compound of Formula (I) (CYP2D6; 0.1 μM): 85.0%
- % Remaining of Compound of Formula (I) (CYP2D6; 1 μM): 93.5%
- IC50 (BRM): 4.5 nM
- effect on CYP3A activity (CYP3A activity; 0.3 to 50 nM): minimal
- decrease in CYP3A activity (CYP3A activity; concentrations 1 to 50 nM): ≤ 32%
- % Remaining of Compound of Formula (I) (CYP1A2; 0.1 μM): 89.4%
- % Remaining of Compound of Formula (I) (CYP1A2; 1 μM): 113%
- R-value for P-gp inhibition in the gut (P-gp; FDA guidance 2020, human dose of 300 mg): > 10
- IC50 (P-gp; P-gp in MDCK-II cells, read-out: Estimated IC50 using nominal concentrations): 18.5 µM
- IC50 (P-gp; P-gp, corrected, read-out: IC50 corrected for non-specific binding): 4.36 µM
- IC50 (CYP2B6 [2]): > 30 µM
- direct inhibitory activity (% inhibition) toward CYP2B6 (CYP2B6 [2]; PHLM, concentrations up to 30 μM): < 50%
- inhibition at 30 µM (CYP2B6 [2]; 30 Minutes Pre-incubation with NADPH, PHLM): -10%
- inhibition at 30 µM (CYP2B6 [2]; 30 Minutes Pre-incubation without NADPH, PHLM): -6%
- inhibition at 30 µM (CYP2B6 [2]; No Pre-incubation, PHLM): 7.6%
- % Remaining of Compound of Formula (I) (CYP2B6 [3]): 85.3%
- cytotoxicity to cultured human hepatocytes [4]: no evidence of cytotoxicity
- % Remaining of Compound of Formula (I) (CYP2C8; 0.1 μM): 81.0%
- % Remaining of Compound of Formula (I) (CYP2C8; 1 μM): 95.4%
- % Remaining of Compound of Formula (I) (CYP3A4; 0.1 μM): 0.0%
- % Remaining of Compound of Formula (I) (CYP3A4; 1 μM): 1.2%
